Source: article PMC3784060 (Cancer Chemotherapy and Pharmacology, 2013)

Assays:
[1] = system: PARP, Mcl-1, p-Rb in primary leukemia samples; experiment: Western blot, primary leukemia cells in vitro; format: cell-based, human; conditions: 6-h exposure, ≥20 nM; more prominent at 200 nM and 24 h
Experimental: Primary leukemia cells for in vitro studies were isolated from BM or PB obtained from AML or ALL patients enrolled on a separate University of Maryland, Baltimore, IRB-approved protocol for tissue collection and not treated on this clinical study. The cells were isolated by gradient centrifugation using LSM (Mediatech) according to the manufacturer’s protocol. Cells were used either fresh or after viable freezing (FBS/10 % DMSO). Primary leukemia cells were cultured in RPMI 1640 (Invitrogen, Grand Island, NY, USA) supplemented with 15 % heat-inactivated FBS (HyClone Laboratories Inc., Red Bank, NJ, USA) and 200 mM L-Glutamine (Invitrogen). […]
For Western blot analysis, leukemia cell pellets (primary leukemia cells, HL-60, MOLT-4, K562) were washed with PBS and lysed with RIPA buffer (Sigma-Aldrich, St. Louis, MO, USA) supplemented with Complete Mini™ protease inhibitor and PHOStop™ phosphatase inhibitors (Roche). […] Blots were washed three times, and the signal was detected with Amersham™ ECL™ detection systems (GE Healthcare, Pittsburgh, PA, USA). […] The Western blot signals were measured by densitometry using ImageJ 1.45I software (NIH, Bethesda, USA).

[2] = system: Mcl-1, phospho-Rb (Ser807/811), PARP cleavage; experiment: pharmacodynamic Western blot on patients' PBMC; format: in vivo, human
Experimental: For Western blot analysis, PB mononuclear cells (PBMC) were isolated by gradient centrifugation using lymphocyte separation medium (LSM) (Mediatech Inc., Manassas, VA, USA), and protein extracts were prepared and analyzed for the expression of Mcl-1, phospho-Rb (Ser807/811), and PARP cleavage as described below.
For Western blot analysis, leukemia cell pellets (primary leukemia cells, HL-60, MOLT-4, K562) were washed with PBS and lysed with RIPA buffer (Sigma-Aldrich, St. Louis, MO, USA) supplemented with Complete Mini™ protease inhibitor and PHOStop™ phosphatase inhibitors (Roche). Equal amounts of proteins up to 25 μg were separated on 4–12 % NuPAGE precast gels in 1X MOPS or 1X MES buffer (Invitrogen) and electro-blotted to PVDF membranes (Millipore, Billerica, MA, USA). The membranes were blocked with 5 % dry milk in 1X TBS/0.1 % Tween 20 for at least 1 h at room temperature. Blots were incubated with primary antibody (Ab) overnight at 4 °C, washed 3 times in TBS/0.1 % Tween 20, and then incubated with secondary Ab for 1 h at room temperature. Blots were washed three times, and the signal was detected with Amersham™ ECL™ detection systems (GE Healthcare, Pittsburgh, PA, USA). The following primary Abs were used: mouse anti-PARP (BD Pharmingen), rabbit anti-phospho-Rb (Ser807/811) and rabbit anti-Mcl-1 (both from Santa Cruz, Santa Cruz, CA, USA), rabbit anti-caspase 9 p35 and anti-caspase 3 (both from Cell Signaling, Danvers, MA, USA), and mouse anti-β-actin (Sigma-Aldrich). […] Secondary horseradish peroxidase-conjugated anti-mouse or anti-rabbit Abs were from Cell Signaling (Beverly, MA, USA). The Western blot signals were measured by densitometry using ImageJ 1.45I software (NIH, Bethesda, USA).

With CCc1cnn2c(NCc3ccc[n+]([O-])c3)cc(N3CCCC[C@H]3CCO)nc12 [Dinaciclib] the “Mcl-1 expression and PARP cleavage” value [1] was “down-regulation of Mcl-1 and induction of PARP cleavage were observed in all 5 primary leukemia samples”, the “down-regulation of Mcl-1” value ([2]; PBMC 4 h after end of infusion, 4 specimens) was 34–76% and the PARP cleavage ([2]; PBMC 4 h post-treatment) was “Induction of PARP cleavage was also observed at 4 h”. For the same compound, the Mcl-1 expression ([2]; PBMC 4 h post-treatment, 1 AML and 3 ALL patients) was “decrease in Mcl-1 was seen in all specimens”, the Mcl-1 expression ([2]; PBMC 24 h post-treatment) was “returned to baseline by 24 h” and the “p-Rb (Ser807/811)” value ([2]; PBMC, 2 patients had almost undetectable baseline p-Rb) was “Decline in p-Rb was observed in 1 patient”.
